In US12358875B2, “N-(phenyl)-indole-3-sulfonamide derivatives and related compounds as GPR17 modulators for treating CNS disorders such as multiple sclerosis” (UCB Pharma GMBH, priority 2019, dated 2025):

What follows are compounds tested against GPR17 (Homo sapiens, UniProt Q13304) (assay: cAMP accumulation functional assay (HTRF), Schild analysis against MDL29,951 in CHO hGPR17). Conditions: CHO hGPR17, Schild analysis vs MDL29,951, 5 μM forskolin; read-out: cAMP assay pA2 (converted).
Assay type: cell-based
Design: host or cells: Flp-In T-REx CHO
Experimental: Flp-In T-REx CHO cells stably expressing human GPR17 receptor (CHO hGPR17) from Evi Kostenis' lab (Bonn University, Germany) were cultured at 37° C. in a humidified atmosphere of 5% CO2. Cells were grown in DMEM with Nutrient Mixture F-12 supplemented with hygromycin B (500 μg/ml) and blasticidin (30 μg/ml). Expression from the Flp-In locus was induced by treatment with doxycycline (1 μg/ml) for 16-20 h prior assays.
GPR17 activation can also recruit Gi-type G-protein signaling, resulting in a decrease of intracellular cyclic adenosine monophosphate (cAMP). Intracellular cAMP changes can be measured using the HTRF cAMP dynamic assay kit from CisBio (Codolet, France). Using homogenous time-resolved fluorescence technology (HTRF), the assay is based on competition between native cAMP produced by cells and cAMP labelled with the dye d2. The tracer binding was determined by an anti-cAMP antibody labeled with cryptate.
CHO hGPR17 were detached with PBS containing EDTA and dispatched in black 384-well plates with 5,000 cells per well. Cells were first incubated for 30 minutes at room temperature in HBSS Hepes (pH 7.4) containing vehicle or varying concentrations of test GPR17 antagonist/inverse agonist compounds. Then, a dose response curve of MDL29,951 GPR17 agonist (typically from 10^−5M to 10^−10M) was added on vehicle and on each test GPR17 antagonist/inverse agonist compound concentration in a final volume of 20 μL HBSS Hepes buffer (pH 7.4) containing 1% DMSO, 5 μM forskolin and 0.1 mM IBMX. After 60 minutes incubation at room temperature, the reaction is terminated and the cells lysed by adding the d2 detection reagent and the cryptate reagent in 10 μL lysis buffer each according to manufacturer's instructions. After 60 minutes incubation, changes in cAMP concentrations are measured according to manufacturer's instructions using an Envision plate reader with laser excitation. All incubations were performed in duplicate. Data was analyzed using GraphPad Prism software using the 4-parameter logistic equation to measure MDL29,951 pEC50s in absence and presence of GPR17 antagonist/inverse agonist test compounds. Dose ratio (DR) were plotted against antagonist concentrations and Schild analysis provided estimated affinity pA2 of GPR17 antagonist/inverse agonist test compounds.
The activities of the Example compounds tested are depicted in the table below. The activity ranges A, B and C refer to pA2 values in the cAMP assay as follows: “A”: pA2 6.5≤x<7.5, “B”: pA2 7.5≤x<8.5, “C”: 8.5≤pA2.

Chain of GPR17 (Q13304 29-367 limits assumed): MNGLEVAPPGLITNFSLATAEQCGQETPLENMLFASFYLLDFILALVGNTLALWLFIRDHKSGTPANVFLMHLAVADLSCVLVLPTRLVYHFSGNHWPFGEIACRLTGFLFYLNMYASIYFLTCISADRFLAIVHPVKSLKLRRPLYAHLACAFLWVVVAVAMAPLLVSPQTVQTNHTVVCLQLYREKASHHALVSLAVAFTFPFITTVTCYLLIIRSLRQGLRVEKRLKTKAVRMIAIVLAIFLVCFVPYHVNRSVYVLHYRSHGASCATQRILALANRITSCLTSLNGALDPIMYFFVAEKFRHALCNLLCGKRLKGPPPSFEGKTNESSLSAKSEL

| Kb | Compound |
| --- | --- |
| 3.16 to 31.6 nM | O=S(=O)(Nc1cc(F)c(Br)cc1F)c1cn(CC(F)CO)c2cc(Cl)ccc12 (centres unmarked) [Example I-7, N-(4-bromo-2,5-difluorophenyl)-6-chloro-1-(2-fluoro-3-hydroxypropyl)indole-3-sulfonamide] |
| 31.6 to 316 nM | O=S(=O)(Nc1cc(F)c(Br)cc1F)c1cn(CCCl)c2cc(Cl)ccc12 [Example I-13, N-(4-bromo-2,5-difluorophenyl)-6-chloro-1-(2-chloroethyl)indole-3-sulfonamide] |
| 3.16 to 31.6 nM | O=S(=O)(Nc1cc(F)c(Br)cc1F)c1cn(CCOCCO)c2cc(Cl)ccc12 [Example I-16, N-(4-bromo-2,5-difluorophenyl)-6-chloro-1-[2-(2-hydroxyethoxy)ethyl]indole-3-sulfonamide] |
| 3.16 to 31.6 nM | O=S(=O)(Nc1cc(F)c(Br)cc1F)c1cn(CC(O)C(F)(F)F)c2cc(Cl)ccc12 (centres unmarked) [Example I-20, N-(4-bromo-2,5-difluorophenyl)-6-chloro-1-(3,3,3-trifluoro-2-hydroxypropyl)indole-3-sulfonamide] |
| 3.16 to 31.6 nM | Cn1cc(S(=O)(=O)Nc2cc(F)c(OC(F)F)cc2F)c2ccc(Cl)cc21 [Example I-22, 6-chloro-N-[4-(difluoromethoxy)-2,5-difluorophenyl]-1-methylindole-3-sulfonamide] |
| 31.6 to 316 nM | CCn1cc(S(=O)(=O)Nc2cc(F)c(OC(F)F)cc2F)c2ccc(Cl)cc21 [Example I-23, 6-chloro-N-[4-(difluoromethoxy)-2,5-difluorophenyl]-1-ethylindole-3-sulfonamide] |
| 3.16 to 31.6 nM | O=S(=O)(Nc1cc(F)c(OC(F)F)cc1F)c1cn(CCF)c2cc(Cl)ccc12 [Example I-24, 6-chloro-N-[4-(difluoromethoxy)-2,5-difluorophenyl]-1-(2-fluoroethyl)indole-3-sulfonamide] |
| 31.6 to 316 nM | COCCn1cc(S(=O)(=O)Nc2cc(F)c(OC(F)F)cc2F)c2ccc(Cl)cc21 [Example I-26, 6-chloro-N-[4-(difluoromethoxy)-2,5-difluorophenyl]-1-(2-methoxyethyl)indole-3-sulfonamide] |
| ≤ 3.16 nM | O=S(=O)(Nc1cc(F)c(OC(F)F)cc1F)c1cn(CC(O)CO)c2cc(Cl)ccc12 (centres unmarked) [Example I-27, 6-chloro-N-[4-(difluoromethoxy)-2,5-difluorophenyl]-1-(2,3-dihydroxypropyl)indole-3-sulfonamide] |
| 3.16 to 31.6 nM | O=S(=O)(Nc1cc(F)c(Br)cc1F)c1cn(CC(O)CO)c2cc(Cl)ccc12 (centres unmarked) [Example I-28, N-(4-bromo-2,5-difluorophenyl)-6-chloro-1-(2,3-dihydroxypropyl)indole-3-sulfonamide] |
| 3.16 to 31.6 nM | O=S(=O)(Nc1cc(F)c(Br)cc1F)c1cn(CC(O)CO)c2nc(Cl)ccc12 (centres unmarked) [Example I-29, N-(4-bromo-2,5-difluorophenyl)-6-chloro-1-(2,3-dihydroxypropyl)pyrrolo[2,3-b]pyridine-3-sulfonamide] |

Further lines, the compound ahead of its results:

| Compound | Kb |
| --- | --- |
| Cn1cc(S(=O)(=O)Nc2cc(F)c(Br)cc2F)c2ccc(Cl)nc21 [Example I-3, N-(4-bromo-2,5-difluorophenyl)-6-chloro-1-methylpyrrolo[2,3-b]pyridine-3-sulfonamide] | 3.16 to 31.6 nM |
| Cn1cc(S(=O)(=O)Nc2cc(F)c(OC(F)F)cc2F)c2ccc(Cl)nc21 [Example I-4, 6-chloro-N-[4-(difluoromethoxy)-2,5-difluorophenyl]-1-methylpyrrolo[2,3-b]pyridine-3-sulfonamide] | 3.16 to 31.6 nM |
| O=S(=O)(Nc1cc(F)c(OC(F)F)cc1F)c1cn(CC(F)F)c2nc(Cl)ccc12 [Example I-5, 6-chloro-1-(2,2-difluoroethyl)-N-[4-(difluoromethoxy)-2,5-difluorophenyl]pyrrolo[2,3-b]pyridine-3-sulfonamide] | 31.6 to 316 nM |
| O=S(=O)(Nc1cc(F)c(Br)cc1F)c1cn(CC(F)F)c2nc(Cl)ccc12 [Example I-6, N-(4-bromo-2,5-difluorophenyl)-6-chloro-1-(2,2-difluoroethyl)pyrrolo[2,3-b]pyridine-3-sulfonamide] | 31.6 to 316 nM |
| O=S(=O)(Nc1cc(F)c(Br)cc1F)c1cn(CC(F)CO)c2nc(Cl)ccc12 (centres unmarked) [Example I-8, N-(4-bromo-2,5-difluorophenyl)-6-chloro-1-(2-fluoro-3-hydroxypropyl)pyrrolo[2,3-b]pyridine-3-sulfonamide] | 31.6 to 316 nM |
| COc1nc(NS(=O)(=O)c2cn(CCO)c3cc(Cl)ccc23)ccc1Br [Example I-9, N-(5-bromo-6-methoxypyridin-2-yl)-6-chloro-1-(2-hydroxyethyl)indole-3-sulfonamide] | 31.6 to 316 nM |
| O=S(=O)(Nc1cc(F)c(Br)cc1F)c1cn(CCO)c2cc(Cl)ccc12 [Example I-10, N-(4-bromo-2,5-difluorophenyl)-6-chloro-1-(2-hydroxyethyl)indole-3-sulfonamide] | 3.16 to 31.6 nM |
| O=C(O)Cn1cc(S(=O)(=O)Nc2cc(F)c(Br)cc2F)c2ccc(Cl)cc21 [Example I-11, 2-[3-[(4-bromo-2,5-difluorophenyl)sulfamoyl]-6-chloroindol-1-yl]acetic acid] | ≤ 3.16 nM |
| Cn1cc(S(=O)(=O)Nc2cc(F)c(Br)cc2F)c2ccc(Cl)cc21 [Example I-12, N-(4-bromo-2,5-difluorophenyl)-6-chloro-1-methylindole-3-sulfonamide] | 3.16 to 31.6 nM |
| O=S(=O)(Nc1cc(F)c(Br)cc1F)c1cn(CCCO)c2cc(Cl)ccc12 [Example I-14, N-(4-bromo-2,5-difluorophenyl)-6-chloro-1-(3-hydroxypropyl)indole-3-sulfonamide] | 31.6 to 316 nM |
| CN(C)CCn1cc(S(=O)(=O)Nc2cc(F)c(Br)cc2F)c2ccc(Cl)cc21 [Example I-15, N-(4-bromo-2,5-difluorophenyl)-6-chloro-1-[2-(dimethylamino)ethyl]indole-3-sulfonamide] | 31.6 to 316 nM |
| CC(=O)Cn1cc(S(=O)(=O)Nc2cc(F)c(Br)cc2F)c2ccc(Cl)cc21 [Example I-17, N-(4-bromo-2,5-difluorophenyl)-6-chloro-1-(2-oxopropyl)indole-3-sulfonamide] | 31.6 to 316 nM |
| CC(O)Cn1cc(S(=O)(=O)Nc2cc(F)c(Br)cc2F)c2ccc(Cl)cc21 (centres unmarked) [Example I-18, N-(4-bromo-2,5-difluorophenyl)-6-chloro-1-(2-hydroxypropyl)indole-3-sulfonamide] | ≤ 3.16 nM |
| O=S(=O)(Nc1cc(F)c(Br)cc1F)c1cn(CC(O)CF)c2cc(Cl)ccc12 (centres unmarked) [Example I-19, N-(4-bromo-2,5-difluorophenyl)-6-chloro-1-(3-fluoro-2-hydroxypropyl)indole-3-sulfonamide] | 3.16 to 31.6 nM |
| O=S(=O)(Nc1cc(F)c(OC(F)F)cc1F)c1cn(CCO)c2cc(Cl)ccc12 [Example I-21, 6-chloro-N-[4-(difluoromethoxy)-2,5-difluorophenyl]-1-(2-hydroxyethyl)indole-3-sulfonamide] | 3.16 to 31.6 nM |
| CCCn1cc(S(=O)(=O)Nc2cc(F)c(OC(F)F)cc2F)c2ccc(Cl)cc21 [Example I-25, 6-chloro-N-[4-(difluoromethoxy)-2,5-difluorophenyl]-1-propylindole-3-sulfonamide] | 31.6 to 316 nM |
| O=S(=O)(Nc1cc(F)c(Br)cc1F)c1cn(CCO)c2nc(Cl)ccc12 [Example I-30, N-(4-bromo-2,5-difluorophenyl)-6-chloro-1-(2-hydroxyethyl)pyrrolo[2,3-b]pyridine-3-sulfonamide] | 3.16 to 31.6 nM |
| COc1nc(Cl)c(F)cc1NS(=O)(=O)c1cn(C)c2cc(Cl)ccc12 [Example I-31, 6-chloro-N-(6-chloro-5-fluoro-2-methoxypyridin-3-yl)-1-methylindole-3-sulfonamide] | 3.16 to 31.6 nM |
| COc1nc(Cl)c(F)cc1NS(=O)(=O)c1cn(CC(F)F)c2cc(Cl)ccc12 [Example I-32, 6-chloro-N-(6-chloro-5-fluoro-2-methoxypyridin-3-yl)-1-(2,2-difluoroethyl)indole-3-sulfonamide] | 3.16 to 31.6 nM |
| COc1nc(Cl)c(F)cc1NS(=O)(=O)c1cn(CC(O)CF)c2cc(Cl)ccc12 (centres unmarked) [Example I-33, 6-chloro-N-(6-chloro-5-fluoro-2-methoxypyridin-3-yl)-1-(3-fluoro-2-hydroxypropyl)indole-3-sulfonamide] | ≤ 3.16 nM |
| COc1nc(Cl)c(F)cc1NS(=O)(=O)c1cn(CC(O)CO)c2cc(Cl)ccc12 (centres unmarked) [Example I-34, 6-chloro-N-(6-chloro-5-fluoro-2-methoxypyridin-3-yl)-1-(2,3-dihydroxypropyl)indole-3-sulfonamide] | 3.16 to 31.6 nM |
